Consider 30 compounds from ChEMBL document CHEMBL1145961, “Metabolism-directed optimization of 3-aminopyrazinone acetamide thrombin inhibitors. Development of an orally bioavailable series containing P1 and P3 pyridines” (J Med Chem, 2003).

Data set [1] can be described thus: Maximum plasma concentration in dog after administration of 1 mg/kg dose of compound. Type of data set: ADME, organism-based, Canis lupus familiaris. On the set-up: dose 1 mg/kg.
Data set [2] can be described thus: Maximum plasma concentration in rat after peroral administration of 10 mg/kg dose of compound. Type of data set: ADME, organism-based. As to conditions: po. On the set-up: dose 10 mg/kg, route oral.
A short description of data set [3]: Concentration required to double the activated partial thromboplastin time (2x APTT) in human plasma. Type of data set: functional.
The nature of data set [4]: Maximum plasma concentration in dog after peroral administration of 1 mg/kg dose of compound. The note with it: po. Type of data set: ADME, organism-based, Canis lupus familiaris. Details: dose 1 mg/kg, route oral.
Data set [5] deals with Serine protease 1 (Homo sapiens, UniProt P07477). Put plainly: Inhibitory constant against human trypsin.
Serine protease 1, sequence (P07477 whole entry): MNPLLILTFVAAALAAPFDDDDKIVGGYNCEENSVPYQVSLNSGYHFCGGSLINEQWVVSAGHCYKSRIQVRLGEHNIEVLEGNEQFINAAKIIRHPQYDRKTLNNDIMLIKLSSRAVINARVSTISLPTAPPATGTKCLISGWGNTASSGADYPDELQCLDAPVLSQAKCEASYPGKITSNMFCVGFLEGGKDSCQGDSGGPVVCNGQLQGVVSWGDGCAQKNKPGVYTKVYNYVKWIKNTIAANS
Data set [6] in a line: (§1) Plasma half-life in dog after peroral administration was evaluated. Type of data set: ADME, organism-based, Canis lupus familiaris. As to conditions: plasma, po.
The nature of data set [7]: in vivo. As to conditions: dog, iv, 1 mg/kg.
Data set [8] is described as follows: Plasma half-life (5 mg/kg) in rhesus monkey after intravenous administration. Type of data set: ADME, organism-based, Macaca mulatta.
Data set [9] is described as follows: Oral bioavailability in dog after administration of 1 mg/kg of compound. The note with it: in vivo. Type of data set: ADME, organism-based, Canis lupus familiaris.
Data set [10] can be described thus: Plasma half-life ([…] mg/kg) in rat after intravenous administration. Type of data set: ADME, organism-based. As to conditions: 10 mg/kg.
Data set [11] is described as follows: Maximum plasma concentration in rhesus monkey after peroral administration of 5 mg/kg dose of compound. Type of data set: ADME, organism-based, Macaca mulatta. Details: dose 5 mg/kg, route oral. As to conditions: po.
Data set [12] in a line: Oral bioavailability in rat (dose 10 mg/kg). Type of data set: ADME, organism-based. The note with it: in vivo.
The nature of data set [13]: Oral bioavailability in Rhesus monkey (dose 5 mg/kg). The note with it: in vivo. Type of data set: ADME, organism-based, Macaca mulatta.
Data set [14] has as its target Prothrombin (Homo sapiens, UniProt P00734). Description: Inhibitory constant against thrombin (IIa).
Data set [15] is described as follows: Maximum plasma concentration in dog after administration of 0.7 mg/kg dose of compound. Type of data set: ADME, organism-based, Canis lupus familiaris. On the set-up: dose 0.7 mg/kg.
Data set [16] is described as follows: Maximum plasma concentration in dog after administration of 0.5 mg/kg dose of compound. Type of data set: ADME, organism-based, Canis lupus familiaris. On the set-up: dose 0.5 mg/kg.
Data set [17] is described as follows: Plasma half-life (5 mg/kg) in african green monkey after intravenous administration. As to conditions: chlorocebus aethiops. Type of data set: ADME, organism-based.
The nature of data set [18]: Oral bioavailability in african green monkey after administration of 5 mg/kg of compound. Type of data set: ADME, organism-based. The note with it: chlorocebus aethiops, in vivo.
In data set [19] the test system is Canis familiaris. The description is as §1. Type of data set: ADME, organism-based, Canis lupus familiaris. As to conditions: in vivo, po.
A short description of data set [20]: Maximum plasma concentration in dog after peroral administration of 0.65 mg/kg dose of compound. Type of data set: ADME, organism-based, Canis lupus familiaris. Details: dose 0.65 mg/kg, route oral. As to conditions: po.
Data set [21] can be described thus: Oral bioavailability in dog after administration of 0.65 mg/kg of compound. Type of data set: ADME, organism-based, Canis lupus familiaris. As to conditions: in vivo.
Data set [22] can be described thus: Plasma half-life (0.65 mg/kg) dog after intravenous administration. Type of data set: ADME, organism-based, Canis lupus familiaris.
Data set [23] can be described thus: Maximum plasma concentration in african green monkey after peroral administration of 5 mg/kg dose of compound. Type of data set: ADME, organism-based. Details: dose 5 mg/kg, route oral. As to conditions: chlorocebus aethiops, po.

pKi: −log10 of the molar value. A value given as a limit tells only on which side of the number the result lay.

Turning to `Cc1cnc(NCC(F)(F)c2ccccn2)c(=O)n1CC(=O)NCc1ncccc1F`, the Cmax is 5640 nM in data set [1], 2160 nM in data set [2], 5640 nM in [4] and 1100 nM in [11]. In addition, the “2x aPTT” value in data set [3] is 0.67 µM. This compound also gave a pKi in data set [5] of 3.60. Also, the half-life was 3.5 h in data set [6], 3.5 h in [7], 0.99 h in data set [8] and 0.57 h in data set [10]. For the same compound, the bioavailability stood at 87% in data set [9], 55% in [12] and 12% in data set [13].

For the compound `O=C(Cn1c(C(F)(F)F)cnc(NCC(F)(F)c2ccccn2)c1=O)NCc1ncccc1F`, the pKi in data set [5] was 3.87; in [14], 7.36.

Regarding `Cc1ccnc(CNC(=O)Cn2c(C)cnc(NCC(F)(F)c3ccccc3)c2=O)c1`, the “2x aPTT” value in data set [3] turned out to be 1.7 µM. Further, the pKi in data set [5] is 3.57; in [14], 8.32.

The compound `Cc1ccnc(CNC(=O)Cn2c(C)cnc(NCC(F)(F)c3ccccn3)c2=O)c1` returned a Cmax in data set [1] of 4120 nM. In addition, in data set [3], the “2x aPTT” value amounted to 0.59 µM. Moreover, the pKi in [5] was 3.37; in data set [14], 8.55. This compound gave a half-life in data set [6] of 2.4 h.

Turning to `Cc1ccnc(CNC(=O)Cn2c(Cl)cnc(NCC(F)(F)c3ccccn3)c2=O)c1F`, in data set [1], the highest level (Cmax) was 670 nM. In data set [3], the “2x aPTT” value turned out to be 0.48 µM. Also, the pKi in [5] was 4.10; in [14], 9.05. This compound had a half-life in data set [6] of 3.2 h.

With `Cc1ccnc(CNC(=O)Cn2c(Cl)cnc(NCC(F)(F)c3ccccn3)c2=O)c1`, in data set [1], the peak level (Cmax) was 2320 nM. In addition, in [3], the “2x aPTT” value is 0.91 µM. Further, the pKi in data set [5] was 3.37; in data set [14], 8.28. Further, the half-life in data set [6] was 2.1 h.

Regarding `Cc1nc(N)ccc1CNC(=O)Cn1c(C)cnc(NCC(F)(F)c2ccccc2)c1=O`, in data set [5], the pKi was 6.07.

`Cc1nc(N)ccc1CNC(=O)Cn1c(C)cnc(NCC(C)c2ccccc2)c1=O` (centres undefined): the “2x aPTT” value in data set [3] was determined as 0.61 µM. The pKi in [5] is 5.80; in data set [14], 8.96.

For `O=C(Cn1ccnc(NCC(F)(F)c2ccccn2)c1=O)NCc1ncccc1F`, the results for the pKi in data set [5] and in data set [14] were less than 3.00 and 6.85, respectively.

`O=C(Cn1c(Cl)cnc(NCC(F)(F)c2ccccn2)c1=O)NCc1ncccc1Cl` yielded a Cmax in data set [1] of 62 nM. Besides, the “2x aPTT” value in data set [3] was determined as 1.41 µM. For the same compound, the pKi in data set [5] is 3.25; in data set [14] it was 8.10. The compound also had a half-life in [6] of 5.7 h.

For the compound `Cc1nc(N)ccc1CNC(=O)Cn1c(C)cnc(NCCc2cccnc2)c1=O`, in data set [3], the “2x aPTT” value turned out to be 0.28 µM. Besides, the pKi in data set [5] was 5.42; in data set [14], 9.27.

In data set [1], `N#Cc1cnc(NCC(F)(F)c2ccccn2)c(=O)n1CC(=O)NCc1ncccc1F` showed a Cmax of 1170 nM. The “2x aPTT” value in data set [3] amounted to 0.41 µM. Besides, the pKi was 3.67 in data set [5] and 8.64 in data set [14]. In data set [6], the half-life was 9.7 h.

On to `Cc1cnc(NCCc2ccccc2)c(=O)n1CC(=O)NCc1ccccn1`, for which the pKi in data set [5] was less than 3.00; in [14] it was 6.41.

In the case of `Cc1nc(N)ccc1CNC(=O)Cn1c(C)cnc(NCCc2ccccn2)c1=O`, the “2x aPTT” value in data set [3] was 0.31 µM. Besides, the pKi in data set [5] was 5.44; in data set [14], 9.57.

With `Cc1nc(N)ccc1CNC(=O)Cn1c(C)cnc(NCC(C)(C)c2ccccc2)c1=O`, the “2x aPTT” value in [3] was found to be 0.5 µM. The pKi in data set [5] was 6.10; in data set [14] it was 8.96.

In the case of `Cc1nc(N)ccc1CNC(=O)Cn1c(C)cnc(NCC(F)(F)c2ccccn2)c1=O`, the “2x aPTT” value in [3] came out at 0.2 µM. The same compound had a pKi in data set [5] of 6.10.

Turning to `Cc1nc(N)ccc1CNC(=O)Cn1c(C)cnc(NCCc2ccncc2)c1=O`, the “2x aPTT” value in data set [3] amounted to 0.45 µM. Moreover, the results for the pKi in [5] and in data set [14] were 5.34 and 8.80, respectively.

Regarding `Cc1ccnc(CNC(=O)Cn2c(C)cnc(NCC(F)(F)c3ccccn3)c2=O)c1F`, in data set [3], the “2x aPTT” value came to 0.48 µM. Moreover, the concentration in data set [15] peaked (Cmax) at 1660 nM. In addition, the pKi in data set [5] is 3.93. In data set [6], the half-life is 1 h.

As for `Cc1cnc(NCC(F)(F)c2ccccn2)c(=O)n1CC(=O)NCc1ccccn1`, the “2x aPTT” value in [3] was found to be 2.2 µM. In addition, the pKi in data set [5] is less than 3.00; in data set [14], 7.82.

As to `Cc1cnc(NCC(F)(F)c2ccccc2)c(=O)n1CC(=O)NCc1ncccc1F`, the highest level in data set [1] (Cmax) was 3730 nM. Also, the “2x aPTT” value in [3] is 1.26 µM. The pKi was 3.30 in data set [5] and 8.17 in data set [14]. This compound also had a half-life in [6] of 2 h.

As to `Cc1cnc(NCCc2ccccc2)c(=O)n1CC(=O)NCc1cccnc1`, the pKi in data set [5] was 3.05; in data set [14], 5.92.

For `Cc1ncccc1CNC(=O)Cn1c(C)cnc(NCCc2ccccc2)c1=O`, the pKi is less than 4.00 in data set [5] and 6.55 in data set [14].

The compound `Cc1ccnc(CNC(=O)Cn2c(C)cnc(NCC(F)(F)c3ccccc3)c2=O)c1F` displayed a Cmax in data set [1] of 1830 nM. Also, the “2x aPTT” value in [3] amounted to 0.72 µM. The pKi is 4.40 in data set [5] and 8.92 in data set [14]. The same compound gave a half-life in [6] of 0.7 h.

As for `COc1ccnc(CNC(=O)Cn2c(Cl)cnc(NCC(F)(F)c3ccccn3)c2=O)c1`, the “2x aPTT” value in data set [3] came to 0.71 µM. The negative logarithm of the Ki (pKi) is 3.18 in data set [5] and 8.44 in data set [14]. This compound had a half-life in data set [6] of 2 h. This compound yielded a Cmax in data set [16] of 530 nM.

In data set [1], `COc1cccnc1CNC(=O)Cn1c(Cl)cnc(NCC(F)(F)c2ccccn2)c1=O` had a Cmax of 900 nM. Also, the “2x aPTT” value in [3] came out at 2.19 µM. The pKi in data set [5] was 3.15; in data set [14], 7.82. The compound further showed a half-life in [6] of 2.3 h.

Take `Cc1cnc(NCCc2ccccc2)c(=O)n1CC(=O)NCc1ccncc1`: the pKi in data set [5] was 3.60; in data set [14] it was 4.77.

On to `Cc1cnc(NCC(F)(F)c2ccccc2)c(=O)n1CC(=O)NCc1cc(Cl)ccn1`, for which the “2x aPTT” value in [3] turned out to be 0.89 µM. Also, the pKi in [5] was 4.33; in data set [14], 8.89.

Regarding `Cc1ccnc(CNC(=O)Cn2c(C#N)cnc(NCC(F)(F)c3ccccn3)c2=O)c1F`, the highest level in data set [1] (Cmax) was 1700 nM. Besides, the “2x aPTT” value in data set [3] came to 0.31 µM. For the same compound, the pKi in data set [5] is 4.21; in [14], 9.40. For the same compound, the half-life in data set [6] was 2.4 h.

For `O=C(Cn1c(Cl)cnc(NCC(F)(F)c2ccccn2)c1=O)NCc1ncccc1F` [DPOC-4088], the Cmax in data set [1] was 1380 nM; in [2], 1060 nM; in [20], 1160 nM; in [11] it was 310 nM; in data set [23] it was 1710 nM. Also, the “2x aPTT” value in data set [3] amounted to 0.78 µM. The half-life in [17] is 1.6 h; in [8], 0.73 h; in data set [10], 0.42 h; in data set [22] it was 4.48 h. The pKi was 3.69 in [5] and 8.28 in data set [14]. Besides, the bioavailability in data set [18] amounted to 66%; in data set [12], 23%; in [13], 5.2%; in data set [21], 66%. Moreover, the T1/2 in data set [19] was found to be 6.6 h.

As to `Cc1nc(N)ccc1CNC(=O)Cn1c(C)cnc(NCCc2ccccc2)c1=O` [L-375378], in data set [3], the “2x aPTT” value was 0.41 µM.

As usually defined, the Cmax is the maximum level reached in the sampled fluid or tissue. Broadly, the pKi is the negative decadic logarithm of the Ki, by convention in mol/L. As usually defined, the half-life is the time in which the quantity being followed falls by half. What is called bioavailability is dose-corrected exposure relative to a reference, in per cent.
